The NIST ThermoML archive (doi:10.1016/j.fluid.2014.08.018)

Conditions: Liquid, Vibrating tube method

CC[n+]1ccccc1C.O=S(=O)([N-]S(=O)(=O)C(F)(F)F)C(F)(F)F
Conditions | mass density [kg/m3]
283.15 K, 100 kPa | 1520.3
283.15 K, 2500 kPa | 1522.2
283.15 K, 5000 kPa | 1523.8
283.15 K, 7500 kPa | 1525.4
283.15 K, 10000 kPa | 1527
283.15 K, 15000 kPa | 1530.1
283.15 K, 20000 kPa | 1533.1
283.15 K, 25000 kPa | 1536
283.15 K, 30000 kPa | 1538.8
283.15 K, 35000 kPa | 1541.6
283.15 K, 45000 kPa | 1546.9
283.15 K, 55000 kPa | 1551.8
283.15 K, 65000 kPa | 1556.4
288.15 K, 100 kPa | 1515.4
288.15 K, 2500 kPa | 1517.2
288.15 K, 5000 kPa | 1518.9
288.15 K, 7500 kPa | 1520.6
288.15 K, 10000 kPa | 1522.2
288.15 K, 15000 kPa | 1525.3
288.15 K, 20000 kPa | 1528.3
288.15 K, 25000 kPa | 1531.3
288.15 K, 30000 kPa | 1534.2
288.15 K, 35000 kPa | 1536.9
288.15 K, 45000 kPa | 1542.2
288.15 K, 55000 kPa | 1547.3
288.15 K, 65000 kPa | 1552
293.15 K, 100 kPa | 1510.5
293.15 K, 2500 kPa | 1512.4
293.15 K, 5000 kPa | 1514.1
293.15 K, 7500 kPa | 1515.7
293.15 K, 10000 kPa | 1517.4
293.15 K, 15000 kPa | 1520.6
293.15 K, 20000 kPa | 1523.6
293.15 K, 25000 kPa | 1526.6
293.15 K, 30000 kPa | 1529.5
293.15 K, 35000 kPa | 1532.4
293.15 K, 45000 kPa | 1537.8
293.15 K, 55000 kPa | 1542.9
293.15 K, 65000 kPa | 1547.7
298.15 K, 100 kPa | 1505.6
298.15 K, 2500 kPa | 1507.5
298.15 K, 5000 kPa | 1509.2
298.15 K, 7500 kPa | 1510.9
298.15 K, 10000 kPa | 1512.5
298.15 K, 15000 kPa | 1515.8
298.15 K, 20000 kPa | 1519
298.15 K, 25000 kPa | 1522
298.15 K, 30000 kPa | 1525
298.15 K, 35000 kPa | 1527.8
298.15 K, 45000 kPa | 1533.3
298.15 K, 55000 kPa | 1538.5
298.15 K, 65000 kPa | 1543.4
303.15 K, 100 kPa | 1500.8
303.15 K, 2500 kPa | 1502.7
303.15 K, 5000 kPa | 1504.5
303.15 K, 7500 kPa | 1506.2
303.15 K, 10000 kPa | 1507.9
303.15 K, 15000 kPa | 1511.2
303.15 K, 20000 kPa | 1514.3
303.15 K, 25000 kPa | 1517.5
303.15 K, 30000 kPa | 1520.5
303.15 K, 35000 kPa | 1523.4
303.15 K, 45000 kPa | 1528.9
303.15 K, 55000 kPa | 1534.2
303.15 K, 65000 kPa | 1539.2
308.15 K, 100 kPa | 1495.9
308.15 K, 2500 kPa | 1497.9
308.15 K, 5000 kPa | 1499.7
308.15 K, 7500 kPa | 1501.4
308.15 K, 10000 kPa | 1503.1
308.15 K, 15000 kPa | 1506.5
308.15 K, 20000 kPa | 1509.7
308.15 K, 25000 kPa | 1512.9
308.15 K, 30000 kPa | 1515.9
308.15 K, 35000 kPa | 1518.9
308.15 K, 45000 kPa | 1524.5
308.15 K, 55000 kPa | 1529.9
308.15 K, 65000 kPa | 1534.9
313.15 K, 100 kPa | 1491.1
313.15 K, 2500 kPa | 1493.2
313.15 K, 5000 kPa | 1495
313.15 K, 7500 kPa | 1496.8
313.15 K, 10000 kPa | 1498.5
313.15 K, 15000 kPa | 1502
313.15 K, 20000 kPa | 1505.2
313.15 K, 25000 kPa | 1508.4
313.15 K, 30000 kPa | 1511.5
313.15 K, 35000 kPa | 1514.5
313.15 K, 45000 kPa | 1520.3
313.15 K, 55000 kPa | 1525.7
313.15 K, 65000 kPa | 1530.8
318.15 K, 100 kPa | 1486.3
318.15 K, 2500 kPa | 1488.4
318.15 K, 5000 kPa | 1490.3
318.15 K, 7500 kPa | 1492.1
318.15 K, 10000 kPa | 1493.8
318.15 K, 15000 kPa | 1497.3
318.15 K, 20000 kPa | 1500.6
318.15 K, 25000 kPa | 1503.9
318.15 K, 30000 kPa | 1507
318.15 K, 35000 kPa | 1510.1
318.15 K, 45000 kPa | 1515.9
318.15 K, 55000 kPa | 1521.4
318.15 K, 65000 kPa | 1526.6
323.15 K, 100 kPa | 1481.5
323.15 K, 2500 kPa | 1483.7
323.15 K, 5000 kPa | 1485.6
323.15 K, 7500 kPa | 1487.4
323.15 K, 10000 kPa | 1489.2
323.15 K, 15000 kPa | 1492.7
323.15 K, 20000 kPa | 1496.2
323.15 K, 25000 kPa | 1499.5
323.15 K, 30000 kPa | 1502.6
323.15 K, 35000 kPa | 1505.7
323.15 K, 45000 kPa | 1511.7
323.15 K, 55000 kPa | 1517.3
323.15 K, 65000 kPa | 1522.5
328.15 K, 100 kPa | 1476.8
328.15 K, 2500 kPa | 1478.9
328.15 K, 5000 kPa | 1480.8
328.15 K, 7500 kPa | 1482.7
328.15 K, 10000 kPa | 1484.5
328.15 K, 15000 kPa | 1488.1
328.15 K, 20000 kPa | 1491.6
328.15 K, 25000 kPa | 1494.9
328.15 K, 30000 kPa | 1498.2
328.15 K, 35000 kPa | 1501.4
328.15 K, 45000 kPa | 1507.4
328.15 K, 55000 kPa | 1513
328.15 K, 65000 kPa | 1518.4
333.15 K, 100 kPa | 1472
333.15 K, 2500 kPa | 1474.3
333.15 K, 5000 kPa | 1476.2
333.15 K, 7500 kPa | 1478.1
333.15 K, 10000 kPa | 1480
333.15 K, 15000 kPa | 1483.6
333.15 K, 20000 kPa | 1487.2
333.15 K, 25000 kPa | 1490.5
333.15 K, 30000 kPa | 1493.9
333.15 K, 35000 kPa | 1497
333.15 K, 45000 kPa | 1503.2
333.15 K, 55000 kPa | 1509
333.15 K, 65000 kPa | 1514.3
